Measurements as given in PMC8776894 (Communications Biology, 2022).

What was measured:
mice = assay: Coagulation function (PT, APTT, TT, FIB) in acute toxicity test; assay type: in vivo, mouse; details: VK 1.5-384 mg/kg single i.p., after 14th day
Protocol: Platelet aggregation function test. Venous blood from (normal healthy rabbits) was collected in 3 mL sodium citrate anticoagulation vacuum plastic tubes. The collected venous blood was centrifuged for 10 min at 100 × g at 4℃ to obtain the upper plasma, and the platelet rich plasma (PRP) was prepared, centrifuged again for 10 min at 2000 × g at 4°C to draw the upper plasma, the platelet poor plasma (PPP) was prepared and […] to a platelet concentration of 3×10^8 cells/ml was counted. The adjusted PRP was placed into a four-channel platelet aggregation instrument (Agg RAM, Helena Laboratories, USA) to determine the 5 min maximum platelet aggregation rate with adenosine diphosphate (ADP), arachidonic acid (AA), thrombin, collagen (COL) , and platelet-activating factor (PAF) or saline as inducers (at a final […]
Acute toxicity test. Systemic acute toxicity test by peritoneal injection was performed according to the guideline provided by Center for Drug Evaluation and Research. In addition to the normal group, male mice were randomly divided into the treated groups received a single dose of 1.5 mg/kg, 6 mg/kg, 24 mg/kg, 96 mg/kg and 384 body weight of VK. […]
The obtained plasma was analyzed using an automatic coagulation apparatus (CA1500). […]

brain of MCAO mice = assay: Fluorescence imaging of FITC-labeled VK in brain of stroke mice; assay type: in vivo, mouse
Protocol: A successful MCAO model was established and these mice were used for subsequent experiments. Immediately after surgery, FITC or FITC-labeled VK were administered intravenously and mice were killed after 30 min to isolate the brain and imaged by an imaging system (IVIS Lumina II). For fluorescent imaging, the brain was immediately collected and kept in the dark for 0, 30, 60, and 90 min after the administration of VK. Frozen sections were prepared according to the above method (seen Morphological Assessment). Images were acquired by confocal microscopy (FV1000 MPE-B, Olympus).

MCAO mice = assay: Mortality after MCAO; assay type: in vivo, mouse; details: vehicle 29.06, P >0.05 vs vehicle
Protocol: Experimental ischemic stroke was performed by MCAO using published protocols[63],[64] with some modifications. In detail, mice (8–10 weeks)[65] were deeply anesthetized with 1.5% isoflurane in a mixture of 30% O2 and 69% N2O. Conditions of the blood gas were maintained at constant levels throughout the operation (PO2, 120 ± 10 mmHg; PCO2, 35 ± 3 mmHg) and temperatures in the temporal muscle and rectum were also maintained at 37.5 ± 0.2°C and 37.0 ± 0.1°C, respectively. Body temperature was kept in the normal range (36.5–37.5 °C) with a heating lamp and a heating pad during surgery. All surgical supplies and instruments were sterilized. The […] (CCA) and the external carotid artery were then gently separated. The blood flow of CCA was blocked with a sterile nylon suture (No.: MSMC21B120PK50, Ruiwode Bio-technology Co., Ltd., China), which was inserted into middle cerebral artery from CCA. The mice in the sham group underwent the same surgery without a nylon suture. After 60 min, the suture was removed and the blood circulation was recovered, MCAO/R was induced. Regional CBF was monitored in all stroke animals by LSCI (PeriScan PSI System; PERIMED, Stockholm, Sweden) to confirm a successful occlusion. […]

[1] = tested on: primary cortical neurons and primary microglia; assay: Primary neuron and microglia co-culture, OGD/R, ELISA of proinflammatory factors; assay type: cell-based, mouse
Protocol: Histological analysis. Organs such as heart, liver, kidney, and brain were excised and fixed in 10% formaldehyde for histological analysis. Their organs were collected and fixed with 4% PFA for 12-18 h, followed by dehydrating using an automatic dehydrator (Leica ASP-300S, Germany) and embedding in paraffin. Then, each sample was coronally cut (4 µm) using a rotatory microtome (Leica RM2245, Germany). The […]
Primary culture of neuron and microglia. Primary cortical neurons (1.0 × 10^5 cells per well in poly-L-lysine-coated 24-well plate) were obtained from fetal C57BL/6 mice of embryonic day 16–17.5, as previously reported1. After careful removal of meninges, cortical tissues were digested in dulbecco's modified eagle medium (DMEM, Gibco) containing 0.05% trypsin (Gibco) at 37 °C for 20 min. DMEM containing 10% FBS (Gibco) was then added to terminate the digestion. The mixture was homogenized by pipetting 120 times and was subsequently filtered with a 100-μm cell strainer (Biologix) and centrifuged at 1000 rpm for 5 min. Then, the cells were collected and resuspended by DMEM supplemented with 10% FBS (Gibco) and penicillin-streptomycin (Gibco).
The suspension was seeded into 24-well plates (10^5 cells/ml), and 4 h later, the medium was changed with Neurobasal medium (Gibco) containing 1% […] and 2% B27 supplement. […]

BV2 microglia cells = assay: CCK-8 cytotoxicity in BV2 cells; details: CCK8 assay

In the case of “Gly-Arg-Pro-Hyp-Gly-Phe-Ser-Pro-Phe-Arg-Ile-Asp [VK, Vespakinin-M]”, the “four coagulation (PT, APTT, TT, FIB)” value (mice) is reported as “No obvious change”, the “accumulation in brain, in vivo imaging” value (brain of MCAO mice; FITC-labeled VK i.v. to stroke mice, brain imaged after 30 min (IVIS Lumina II)) is reported as “slightly accumulate in the ischemic region” and the “penetration of BBB and cell membrane (conclusion)” value (brain of MCAO mice; under conditions such as cerebral I/R) is reported as “can cross the BBB and cell membrane”. For the same substance, the “Death rate (mortality) of MCAO mice” value (MCAO mice; VK 150 μg/kg, 48 MCAO animals) was 25%, the “Death rate (mortality) of MCAO mice” value (MCAO mice; VK 300 μg/kg, 64 MCAO animals) was 18.75% and the “protection of neurons in co-culture with microglia, proinflammatory cytokines” value [1] was “protects neurons”. The “concentrations at which VK inhibited growth of BV2 cells” value (BV2 microglia cells) was 73.5 to 735 µM.
